Reference: US8163766B2, “Beta-secretase modulators and methods of use” (Amgen Inc., priority 2005, dated 2012)

System: Aβ 40 in conditioned media of cells stably expressing Amyloid Precursor Protein (APP)
Assay: BACE Cell-Based Assay (Aβ40 in conditioned medium, sandwich ELISA)
Settings: 24 hours of incubation with the test compounds, Aβ 40 by sandwich ELISA, read-out: IC50 values in the cell-based assay (inhibition of Aβ 40)
Summary of the method: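 APP-stably-expressing cells in DMEM/10% FBS exposed 24 h to 10-point compound dilutions starting at 100 or 10 μM, 0.1% DMSO final. Aβ40 in conditioned medium measured by sandwich ELISA (pAb40 capture, biotinylated 6E10 detection, Eu time-resolved fluorescence); IC50 from percent inhibition versus concentration.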

Row | SMILES | IC50 [µM]
1 | O=C(N[C@@H](Cc1ccccc1)[C@H](O)CN[C@H]1CC2(CCCC2)Oc2ccccc21)c1cc(-c2ccccn2)c(=O)n(C2CCCC2)c1 [Example 150, 1-cyclopentyl-N-((2S,3R)-4-((S)-2,2-spirocyclopentylchroman-4-ylamino)-3-hydroxy-1-phenylbutan-2-yl)-6-oxo-5-(pyridin-2-yl)-1,6-dihydropyridine-3-carboxamide] | ≤ 5
2 | CCc1ccc2c(c1)[C@@H](NC[C@@H](O)[C@H](Cc1ccccc1)NC(=O)c1ccc(=O)n(C3CCCC3)n1)CC1(CCC1)O2 [Example 151, 1-cyclopentyl-N-((2S,3R)-4-((S)-6-ethyl-2,2-spirocyclo-butylchroman-4-ylamino)-3-hydroxy-1-phenylbutan-2-yl)-6-oxo-1,6-dihydropyridazine-3-carboxamide] | ≤ 5
3 | O=C(N[C@@H](Cc1ccccc1)[C@H](O)CN[C@H]1CC2(CCC2)Oc2ccccc21)c1cc(N2CCCC2=O)c(=O)n(C2CCCC2)c1 [Example 152, 1-cyclopentyl-N-((2S,3R)-4-((S)-2,2-spirocyclobutylchroman-4-ylamino)-3-hydroxy-1-phenylbutan-2-yl)-6-oxo-5-(2-oxopyrrolidin-1-yl)-1,6-dihydropyridine-3-carboxamide] | ≤ 5
4 | O=C(N[C@@H](Cc1ccccc1)[C@H](O)CN[C@H]1CC2(CCC2)Oc2ccccc21)c1ccc(=O)n(C2CCCC2)c1 [Example 153, 1-cyclopentyl-N-((2S,3R)-4-((S)-2,2-spirocyclobutylchroman-4-ylamino)-3-hydroxy-1-phenylbutan-2-yl)-6-oxo-1,6-dihydropyridine-3-carboxamide] | ≤ 5
5 | CCc1ccc2c(c1)[C@@H](NC[C@@H](O)[C@H](Cc1ccccc1)NC(=O)c1cn(C3CCCC3)c(=O)c3ccccc13)CC1(CCCC1)O2 [Example 158, 2-cyclopentyl-N-((2S,3R)-4-((S)-6-ethyl-2,2-spirocyclopentylchroman-4-ylamino)-3-hydroxy-1-phenylbutan-2-yl)-1-oxo-1,2-dihydroisoquinoline-4-carboxamide] | ≤ 5
6 | CCc1ccc2c(c1)[C@@H](NC[C@@H](O)[C@H](Cc1ccccc1)NC(=O)c1cc(-c3ccccc3F)c(=O)n3c1CCC3C)CC1(CCCC1)O2 (some centres unmarked) [Example 159] | ≤ 5
7 | CCc1ccc2c(c1)[C@@H](NC[C@@H](O)[C@H](Cc1ccccc1)NC(=O)c1ccc(=O)n(C3CCCCC3)c1)CC1(CCCC1)O2 [Example 160] | ≤ 5
8 | CCc1ccc2c(c1)[C@@H](NC[C@@H](O)[C@H](Cc1ccccc1)NC(=O)c1ccc(=O)n(C3CCCC(C)C3)c1)CC1(CCCC1)O2 (some centres unmarked) [Example 161] | ≤ 5
9 | CCc1ccc2c(c1)[C@@H](NC[C@@H](O)[C@H](Cc1ccccc1)NC(=O)c1cn(C3CCCC3)c(=O)c3ccccc13)CC1(CCC1)O2 [Example 162] | ≤ 5
10 | CCc1ccc2c(c1)[C@@H](NC[C@@H](O)[C@H](Cc1ccccc1)NC(=O)c1ccc(=O)n(C3CCCC3)c1)CC(C)(C)O2 [Example 163] | ≤ 5
11 | CCc1ccc2c(c1)C(NC[C@@H](O)[C@H](Cc1ccccc1)NC(=O)c1cc(-c3ccccn3)c(=O)n(C3CCCC3)c1)CC1(CCC1)O2 (stereo partly drawn) [Example 164, 1-Cyclopentyl-N-((2S,3R)-4-((S)-6-ethyl-2,2-spirocyclobutylchroman-4-ylamino)-3-hydroxy-1-phenylbutan-2-yl)-6-oxo-5-(pyridin-2-yl)-1,6-dihydropyridine-3-carboxamide] | ≤ 5
12 | CCc1ccc2c(c1)[C@H](NC[C@@H](O)[C@H](Cc1ccccc1)NC(=O)c1cc(-c3ccccn3)c(=O)n(C(C)C)c1)CC1(CCCC1)O2 [Example 165, N-((2S,3R)-4((R)-6-ethyl-2,2-spirocyclopentylchroman-4-ylamino)-3-hydroxy-1-phenylbutan-2-yl)-1-isopropyl-6-oxo-5-(pyridin-2-yl)-1,6-dihydropyridine-3-carboxamide] | ≤ 5
13 | O=C(N[C@@H](Cc1ccccc1)[C@H](O)CN[C@H]1CC2(CCC2)Nc2ccc(Br)cc21)c1cc(-c2ccccn2)c(=O)n(C2CCCC2)c1 [Example 471, N-((1S,2R)-3-(((4′S)-6′-bromo-3′,4′-dihydro-1′H-spiro[cyclobutane-1,2′-quinolin]-4′-yl)amino)-2-hydroxy-1-(phenylmethyl)propyl)-1′-cyclopentyl-2′-oxo-1′,2′-dihydro-2,3′-bipyridine-5′-carboxamide] | ≤ 5
14 | O=C(N[C@@H](Cc1ccc(F)cc1)[C@H](O)CN[C@H]1CC2(CCC2)Oc2cc(F)c(-n3cccn3)cc21)C1CC1 [Example 472, N-((1S,2R)-1-((4-fluorophenyl)methyl)-3-(((4S)-7-fluoro-6-(1H-pyrazol-1-yl)-3,4-dihydrospiro[chromene-2,1′-cyclobutan]-4-yl)amino)-2-hydroxypropyl)cyclopropanecarboxamide] | ≤ 5
15 | O=C(N[C@@H](Cc1ccc(F)cc1)[C@H](O)CN[C@H]1CC2(CCC2)Oc2cc(F)c(-n3cccn3)cc21)C1CCC1 [Example 473, N-((1S,2R)-1-((4-fluorophenyl)methyl)-3-(((4S)-7-fluoro-6-(1H-pyrazol-1-yl)-3,4-dihydrospiro[chromene-2,1′-cyclobutan]-4-yl)amino)-2-hydroxypropyl)cyclobutanecarboxamide] | ≤ 5
16 | CCc1ccc2c(c1)[C@@H](NCC(=O)[C@H](Cc1ccccc1)NC(=O)[C@@H]1CN(C(=O)N3CCCCC3)CCO1)CC(C)(C)O2 [Example 475, (2S)-N-((1S)-3-(((4S)-6-ethyl-2,2-dimethyl-3,4-dihydro-2H-chromen-4-yl)amino)-2-oxo-1-(phenylmethyl)propyl)-4-(1-piperidinylcarbonyl)-2-morpholinecarboxamide] | ≤ 5
17 | O=C(N[C@@H](Cc1ccccc1)[C@H](O)CN[C@H]1CC2(CCC2)Oc2ccccc21)c1cc(-c2ccccn2)c(=O)n(C2CCCC2)c1 [Example 476, 1′-cyclopentyl-N-((1S,2R)-3-((4S)-3,4-dihydrospiro[chromene-2,1′-cyclobutan]-4-ylamino)-2-hydroxy-1-(phenylmethyl)propyl)-2′-oxo-1′,2′-dihydro-2,3′-bipyridine-5′-carboxamide] | ≤ 5
18 | CC#CC[C@H](NC(=O)c1cc(-c2ccccn2)c(=O)n(C2CCCC2)c1)[C@H](O)CN[C@H]1CC2(CCC2)Oc2ccc(CC)cc21 [Example 477, 1′-cyclopentyl-N-((1S)-1-((1R)-2-(((4S)-6-ethyl-3,4-dihydrospiro[chromene-2,1′-cyclobutan]-4-yl)amino)-1-hydroxyethyl)-3-pentyn-1-yl)-2′-oxo-1′,2′-dihydro-2,3′-bipyridine-5′-carboxamide] | ≤ 5
19 | C[C@@H](N[C@H]1CC(C)(C)Oc2ccc(Br)cc21)[C@H](O)[C@H](Cc1ccccc1)NC(=O)c1cc(-c2ccccn2)c(=O)n(C2CCCC2)c1 [Example 480, N-((1S,2S,3R)-3-(((4S)-6-bromo-2,2-dimethyl-3,4-dihydro-2H-chromen-4-yl)amino)-2-hydroxy-1-(phenylmethyl)butyl)-1′-cyclopentyl-2′-oxo-1′,2′-dihydro-2,3′-bipyridine-5′-carboxamide] | ≤ 5
20 | CC1(C)C[C@@H](NC[C@@H](O)[C@H](Cc2ccccc2)NC(=O)c2cc(-c3ccccn3)c(=O)n(C3CCCC3)c2)c2cc(Br)ccc2N1 [Example 481, N-((1S,2R)-3-(((4R)-6-bromo-2,2-dimethyl-1,2,3,4-tetrahydro-4-quinolinyl)amino)-2-hydroxy-1-(phenylmethyl)propyl)-1′-cyclopentyl-2′-oxo-1′,2′-dihydro-2,3′-bipyridine-5′-carboxamide] | ≤ 5
